Measurements as given in PubChem BioAssay (NCI).
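Results reflect a 48-hour exposure of cells in 96-well plates to compound at five concentrations. At the GI50, growth is halved. At the TGI there is no net growth.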

Columns and labels:
Test in all cases: growth of human tumour cells (NCI), 48 h
[1] = test system: SNB-19 CNS
[2] = test system: OVCAR-4 ovarian
[3] = test system: HL-60(TB) leukemia
[4] = test system: SF-268 CNS
[5] = test system: TK-10 renal
[6] = test system: PC-3 prostate
[7] = test system: K-562 leukemia
[8] = test system: HCC-2998 colon
[9] = test system: NCI-H23 lung
[10] = test system: MDA-MB-468 breast
[11] = test system: HCT-15 colon
[12] = test system: U251 CNS
[13] = test system: DU-145 prostate
[14] = test system: SW-620 colon
[15] = test system: HS 578T breast
[16] = test system: M14 melanoma
[17] = test system: NCI-H460 lung
[18] = test system: MALME-3M melanoma
[19] = test system: SN12C renal
[20] = test system: NCI-H522 lung
[21] = test system: UACC-257 melanoma
[22] = test system: OVCAR-5 ovarian
[23] = test system: SF-539 CNS
[24] = test system: HT29 colon
[25] = test system: MOLT-4 leukemia
[26] = test system: CCRF-CEM leukemia
[27] = test system: COLO 205 colon
[28] = test system: NCI-H226 lung
[29] = test system: LOX IMVI melanoma
[30] = test system: HCT-116 colon
[31] = test system: ACHN renal
[32] = test system: CAKI-1 renal
[33] = test system: IGROV1 ovarian
[34] = test system: A498 renal
[35] = test system: OVCAR-8 ovarian
[36] = test system: EKVX NSCLC
[37] = test system: SK-MEL-28 melanoma
[38] = test system: HOP-62 NSCLC
[39] = test system: SNB-75 CNS
[40] = test system: 786-0 renal
[41] = test system: NCI/ADR-RES ovarian
[42] = test system: MDA-MB-435
[43] = test system: SR leukemia
[44] = test system: SK-MEL-5 melanoma
[45] = test system: RPMI-8226 leukemia
[46] = test system: SF-295 CNS
[47] = test system: UACC-62 melanoma
[48] = test system: T-47D breast
[49] = test system: SK-OV-3 ovarian
[50] = test system: KM12 colon
[51] = test system: MCF7 breast
[52] = test system: RXF 393 renal
[53] = test system: UO-31 renal
[54] = test system: OVCAR-3 ovarian
[55] = test system: A549 NSCLC
[56] = test system: HOP-92 NSCLC
[57] = test system: SK-MEL-2 melanoma
[58] = test system: BT-549 breast
[59] = test system: MDA-MB-231 breast

**Q.** For `O=C(CSc1nnc(-c2ccc(-c3nc4ccccc4[nH]3)cc2)o1)Nc1ccc(Cl)cc1`, which GI50 [1] is on record?
**A.** 14.6 µM

**Q.** What about the TGI [1] of the same molecule?
**A.** 29.7 µM

**Q.** And the GI50 [2]?
**A.** 9.74 µM

**Q.** And the TGI [2]?
**A.** 22.2 µM

**Q.** What about the GI50 [3] of the same molecule?
**A.** 11.1 µM

**Q.** And the TGI [3]?
**A.** > 100 µM

**Q.** And the GI50 [4]?
**A.** 4.14 µM

**Q.** And the TGI [4]?
**A.** 20 µM

**Q.** And the GI50 [5]?
**A.** 24.8 µM

**Q.** What about the TGI [5] of the same molecule?
**A.** 66.9 µM

**Q.** And the GI50 [6]?
**A.** 3.9 µM

**Q.** What about the TGI [6] of the same molecule?
**A.** 16.7 µM

**Q.** What about the GI50 [7] of the same molecule?
**A.** 4.59 µM

**Q.** And the TGI [7]?
**A.** > 100 µM

**Q.** What about the GI50 [8] of the same molecule?
**A.** 24.5 µM

**Q.** What about the TGI [8] of the same molecule?
**A.** > 100 µM

**Q.** And the GI50 [9]?
**A.** 7.12 µM

**Q.** What about the TGI [9] of the same molecule?
**A.** 23.2 µM

**Q.** What about the GI50 [10] of the same molecule?
**A.** 14.7 µM

**Q.** What about the TGI [10] of the same molecule?
**A.** 29.6 µM

**Q.** What about the GI50 [11] of the same molecule?
**A.** 6.16 µM

**Q.** What about the TGI [11] of the same molecule?
**A.** 23.9 µM

**Q.** And the GI50 [12]?
**A.** 15.4 µM

**Q.** What about the TGI [12] of the same molecule?
**A.** 30.8 µM

**Q.** What about the GI50 [13] of the same molecule?
**A.** 4.62 µM

**Q.** And the TGI [13]?
**A.** 17.4 µM

**Q.** What about the GI50 [14] of the same molecule?
**A.** 3.58 µM

**Q.** What about the TGI [14] of the same molecule?
**A.** 15.8 µM

**Q.** What about the GI50 [15] of the same molecule?
**A.** 11.9 µM

**Q.** And the TGI [15]?
**A.** 42.6 µM

**Q.** What about the GI50 [16] of the same molecule?
**A.** 4.9 µM

**Q.** What about the TGI [16] of the same molecule?
**A.** 18.3 µM

**Q.** What about the GI50 [17] of the same molecule?
**A.** 2.93 µM

**Q.** What about the TGI [17] of the same molecule?
**A.** 10.9 µM

**Q.** And the GI50 [18]?
**A.** 3.37 µM

**Q.** And the TGI [18]?
**A.** 13.2 µM

**Q.** What about the GI50 [19] of the same molecule?
**A.** 10.1 µM

**Q.** And the TGI [19]?
**A.** 22.3 µM

**Q.** What about the GI50 [20] of the same molecule?
**A.** 4.94 µM

**Q.** What about the TGI [20] of the same molecule?
**A.** 21.6 µM

**Q.** What about the GI50 [21] of the same molecule?
**A.** 9.3 µM

**Q.** What about the TGI [21] of the same molecule?
**A.** 26.9 µM

**Q.** What about the GI50 [22] of the same molecule?
**A.** 14.8 µM

**Q.** What about the TGI [22] of the same molecule?
**A.** 36.6 µM

**Q.** And the GI50 [23]?
**A.** 5.26 µM

**Q.** What about the TGI [23] of the same molecule?
**A.** 17.9 µM

**Q.** What about the GI50 [24] of the same molecule?
**A.** 6.62 µM

**Q.** What about the TGI [24] of the same molecule?
**A.** 30 µM

**Q.** And the GI50 [25]?
**A.** 4.42 µM

**Q.** What about the TGI [25] of the same molecule?
**A.** > 100 µM

**Q.** And the GI50 [26]?
**A.** 5.58 µM

**Q.** What about the TGI [26] of the same molecule?
**A.** 33.1 µM

**Q.** What about the GI50 [27] of the same molecule?
**A.** 23 µM

**Q.** And the TGI [27]?
**A.** > 100 µM

**Q.** And the GI50 [28]?
**A.** 2.5 µM

**Q.** And the TGI [28]?
**A.** 9.38 µM

**Q.** And the GI50 [29]?
**A.** 1.94 µM

**Q.** What about the TGI [29] of the same molecule?
**A.** 4.4 µM

**Q.** What about the GI50 [30] of the same molecule?
**A.** 4.14 µM

**Q.** And the TGI [30]?
**A.** 17.3 µM

**Q.** What about the GI50 [31] of the same molecule?
**A.** 5.05 µM

**Q.** And the TGI [31]?
**A.** 17.9 µM

**Q.** And the GI50 [32]?
**A.** 3.51 µM

**Q.** What about the TGI [32] of the same molecule?
**A.** 13.2 µM

**Q.** And the GI50 [33]?
**A.** 15.1 µM

**Q.** And the TGI [33]?
**A.** 31.3 µM

**Q.** What about the GI50 [34] of the same molecule?
**A.** 18.6 µM

**Q.** What about the TGI [34] of the same molecule?
**A.** 42.9 µM

**Q.** What about the GI50 [35] of the same molecule?
**A.** 5.91 µM

**Q.** And the TGI [35]?
**A.** 22.3 µM

**Q.** What about the GI50 [36] of the same molecule?
**A.** 10.8 µM

**Q.** And the TGI [36]?
**A.** 28.1 µM

**Q.** And the GI50 [37]?
**A.** 4.02 µM

**Q.** What about the TGI [37] of the same molecule?
**A.** 14.9 µM

**Q.** And the GI50 [38]?
**A.** 5.74 µM

**Q.** And the TGI [38]?
**A.** 22.1 µM

**Q.** And the GI50 [39]?
**A.** 2.44 µM

**Q.** And the TGI [39]?
**A.** 14.5 µM

**Q.** What about the GI50 [40] of the same molecule?
**A.** 2.04 µM

**Q.** What about the TGI [40] of the same molecule?
**A.** 4.45 µM

**Q.** What about the GI50 [41] of the same molecule?
**A.** 14.8 µM

**Q.** What about the TGI [41] of the same molecule?
**A.** 85.7 µM

**Q.** And the GI50 [42]?
**A.** 3.3 µM

**Q.** And the TGI [42]?
**A.** 13.5 µM

**Q.** What about the GI50 [43] of the same molecule?
**A.** 10.1 µM

**Q.** And the TGI [43]?
**A.** > 100 µM

**Q.** What about the GI50 [44] of the same molecule?
**A.** 12.6 µM

**Q.** What about the TGI [44] of the same molecule?
**A.** 26.7 µM

**Q.** And the GI50 [45]?
**A.** 8.39 µM

**Q.** What about the TGI [45] of the same molecule?
**A.** 80.3 µM

**Q.** And the GI50 [46]?
**A.** 7.2 µM

**Q.** What about the TGI [46] of the same molecule?
**A.** 22 µM

**Q.** And the GI50 [47]?
**A.** 11.4 µM

**Q.** What about the TGI [47] of the same molecule?
**A.** 23.9 µM

**Q.** What about the GI50 [48] of the same molecule?
**A.** 9.84 µM

**Q.** And the TGI [48]?
**A.** 44.1 µM

**Q.** And the GI50 [49]?
**A.** 18.4 µM

**Q.** And the TGI [49]?
**A.** 43.7 µM

**Q.** What about the GI50 [50] of the same molecule?
**A.** 10.6 µM

**Q.** What about the TGI [50] of the same molecule?
**A.** 39.5 µM

**Q.** What about the GI50 [51] of the same molecule?
**A.** 3.73 µM

**Q.** And the TGI [51]?
**A.** 19.3 µM

**Q.** What about the GI50 [52] of the same molecule?
**A.** 4.41 µM

**Q.** And the TGI [52]?
**A.** 16.7 µM

**Q.** What about the GI50 [53] of the same molecule?
**A.** 13 µM

**Q.** What about the TGI [53] of the same molecule?
**A.** 25.7 µM

**Q.** And the GI50 [54]?
**A.** 5.78 µM

**Q.** What about the TGI [54] of the same molecule?
**A.** 19.1 µM

**Q.** What about the GI50 [55] of the same molecule?
**A.** 3.65 µM

**Q.** And the TGI [55]?
**A.** 16.4 µM

**Q.** And the GI50 [56]?
**A.** 5.06 µM

**Q.** What about the TGI [56] of the same molecule?
**A.** 21.5 µM

**Q.** What about the GI50 [57] of the same molecule?
**A.** 15.9 µM

**Q.** What about the TGI [57] of the same molecule?
**A.** 35.3 µM

**Q.** What about the GI50 [58] of the same molecule?
**A.** 3.4 µM

**Q.** What about the TGI [58] of the same molecule?
**A.** 14 µM

**Q.** What about the GI50 [59] of the same molecule?
**A.** 11.4 µM

**Q.** And the TGI [59]?
**A.** 24 µM
